Each molecule was assayed against PD-1/PD-L1 interaction (PD-1-Ig / PD-L1-His) (Homo sapiens (Human), UniProt Q9NZQ7) (assay: PD-1/PD-L1 Homogenous Time-Resolved Fluorescence (HTRF) binding assay). Conditions: PD-1/PD-L1 HTRF binding assay; value given as range class; read-out: Range or IC50.
Sequence of PD-1/PD-L1 interaction (PD-1-Ig / PD-L1-His) (Q9NZQ7 other isoform, or with tags, fused parts or gaps): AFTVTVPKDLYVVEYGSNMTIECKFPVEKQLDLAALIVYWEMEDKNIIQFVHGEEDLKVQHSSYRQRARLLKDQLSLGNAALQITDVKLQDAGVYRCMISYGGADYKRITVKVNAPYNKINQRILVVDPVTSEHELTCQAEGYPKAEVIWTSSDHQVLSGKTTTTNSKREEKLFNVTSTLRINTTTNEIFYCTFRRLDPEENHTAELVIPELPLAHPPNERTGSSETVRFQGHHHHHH
In short: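 Human PD-L1-His (10 nM final) was pre-incubated with inhibitor for 15 min, then PD-1-Ig (20 nM final) was added for a further 15 min in dPBS with 0.1% BSA and 0.05% Tween-20. Binding was detected by HTRF using Eu-cryptate anti-Ig (1 nM) and APC anti-His (20 nM).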
`COCC(NCc1cc(Cl)c(OCc2cccc(-c3ccc4c(c3)OCCO4)c2C)cc1OCc1cccc(C#N)c1)C(=O)O` (stereo not drawn) [Example 1184, 2-((5-chloro-2-((3-cyanobenzyl)oxy)-4-((3-(2,3-dihydrobenzo[b][1,4]dioxin-6-yl)-2-methylbenzyl)oxy)benzyl)amino)-3-methoxypropanoic acid] showed an IC50 of 0.6 to 10 nM.
`Cc1c(COc2cc(OCc3cccc(C#N)c3)c(CNC(Cc3c[nH]c4ncccc34)C(=O)O)cc2Cl)cccc1-c1ccc2c(c1)OCCO2` (stereo not drawn) [Example 1185, 2-((5-chloro-2-((3-cyanobenzyl)oxy)-4-((3-(2,3-dihydrobenzo[b][1,4]dioxin-6-yl)-2-methylbenzyl)oxy)benzyl)amino)-3-(1H-pyrrolo[2,3-b]pyridin-3-yl)propanoic acid] gave an IC50 of 10 to 100 nM.
Work on `Cc1c(COc2cc(OCc3cccc(C#N)c3)c(CN[C@@H](Cc3cn(Cc4ccccc4)cn3)C(=O)O)cc2Cl)cccc1-c1ccc2c(c1)OCCO2` [Example 1186, (S)-3-(1-benzyl-1H-imidazol-4-yl)-2-((5-chloro-2-((3-cyanobenzyl)oxy)-4-((3-(2,3-dihydrobenzo[b][1,4]dioxin-6-yl)-2-methylbenzyl)oxy)benzyl)amino)propanoic acid] yielded an IC50 of 0.6 to 10 nM.
`Cc1c(COc2cc(OCc3cccc(C#N)c3)c(CNC(Cc3ccc(O)cc3)C(=O)O)cc2Cl)cccc1-c1ccc2c(c1)OCCO2` (stereo not drawn) [Example 1187, 2-((5-chloro-2-((3-cyanobenzyl)oxy)-4-((3-(2,3-dihydrobenzo[b][1,4]dioxin-6-yl)-2-methylbenzyl)oxy)benzyl)amino)-3-(4-hydroxyphenyl)propanoic acid] showed an IC50 of 10 to 100 nM.
`Cc1c(COc2cc(OCc3cccc(C#N)c3)c(CN(C)C(C)C(=O)O)cc2Cl)cccc1-c1ccc2c(c1)OCCO2` (stereo not drawn) [Example 1188, 2-((5-chloro-2-((3-cyanobenzyl)oxy)-4-((3-(2,3-dihydrobenzo[b][1,4]dioxin-6-yl)-2-methylbenzyl)oxy)benzyl)(methyl)amino)propanoic acid] gave an IC50 of 0.6 to 10 nM.
`Cc1c(COc2cc(OCc3cccc(C#N)c3)c(CN[C@H](C(=O)O)[C@H](C)O)cc2Cl)cccc1-c1ccc2c(c1)OCCO2` [Example 1189, (2S,3S)-2-((5-chloro-2-((3-cyanobenzyl)oxy)-4-((3-(2,3-dihydrobenzo[b][1,4]dioxin-6-yl)-2-methylbenzyl)oxy)benzyl)amino)-3-hydroxybutanoic acid] showed an IC50 of 0.6 to 10 nM.
In the case of `Cc1c(COc2cc(OCc3cccc(C#N)c3)c(CN3CCC[C@@H](C(=O)O)[C@H]3C(=O)O)cc2Cl)cccc1-c1ccc2c(c1)OCCO2` [Example 1190, (2S,3R)-1-(5-chloro-2-((3-cyanobenzyl)oxy)-4-((3-(2,3-dihydrobenzo[b][1,4]dioxin-6-yl)-2-methylbenzyl)oxy)benzyl)piperidine-2,3-dicarboxylic acid], the IC50 is reported as 0.6 to 10 nM.
For `Cc1c(COc2cc(OCc3cccc(C#N)c3)c(CNC(C)(Cc3c[nH]cn3)C(=O)O)cc2Cl)cccc1-c1ccc2c(c1)OCCO2` (stereo not drawn) [Example 1191, 2-((5-chloro-2-((3-cyanobenzyl)oxy)-4-((3-(2,3-dihydrobenzo[b][1,4]dioxin-6-yl)-2-methylbenzyl)oxy)benzyl)amino)-3-(1H-imidazol-4-yl)-2-methylpropanoic acid], the IC50 was 0.6 to 10 nM.
`Cc1c(COc2cc(OCc3cccc(C#N)c3)c(CNC(Cc3c[nH]c4ccccc34)C(=O)O)cc2Cl)cccc1-c1ccc2c(c1)OCCO2` (stereo not drawn) [Example 1192, 2-((5-chloro-2-((3-cyanobenzyl)oxy)-4-((3-(2,3-dihydrobenzo[b][1,4]dioxin-6-yl)-2-methylbenzyl)oxy)benzyl)amino)-3-(1H-indol-3-yl)propanoic acid] gave an IC50 of 100 to 20000 nM.
For `CC[C@@H](NCc1cc(Cl)c(OCc2cccc(-c3ccc4c(c3)OCCO4)c2C)cc1OCc1cccc(C#N)c1)C(=O)O` [Example 1193, (R)-2-((5-chloro-2-((3-cyanobenzyl)oxy)-4-((3-(2,3-dihydrobenzo[b][1,4]dioxin-6-yl)-2-methylbenzyl)oxy)benzyl)amino)butanoic acid], the IC50 was 0.6 to 10 nM.
`Cc1c(COc2cc(OCc3cccc(C#N)c3)c(CN[C@H](COCc3ccccc3)C(=O)O)cc2Cl)cccc1-c1ccc2c(c1)OCCO2` [Example 1194, (R)-3-(benzyloxy)-2-((5-chloro-2-((3-cyanobenzyl)oxy)-4-((3-(2,3-dihydrobenzo[b][1,4]dioxin-6-yl)-2-methylbenzyl)oxy)benzyl)amino)propanoic acid] was tested, and the IC50 was 10 to 100 nM.
With `Cc1c(COc2cc(OCc3cccc(C#N)c3)c(CN[C@@H](C(=O)O)[C@H](C)O)cc2Cl)cccc1-c1ccc2c(c1)OCCO2` [Example 1195, (2R,3S)-2-((5-chloro-2-((3-cyanobenzyl)oxy)-4-((3-(2,3-dihydrobenzo[b][1,4]dioxin-6-yl)-2-methylbenzyl)oxy)benzyl)amino)-3-hydroxybutanoic acid] the IC50 was 0.6 to 10 nM.
For `Cc1c(COc2cc(OCc3cccc(C#N)c3)c(CN3CCCC[C@@H]3C(=O)O)cc2Cl)cccc1-c1ccc2c(c1)OCCO2` [Example 1198, (R)-1-(5-chloro-2-((3-cyanobenzyl)oxy)-4-((3-(2,3-dihydrobenzo[b][1,4]dioxin-6-yl)-2-methylbenzyl)oxy)benzyl)piperidine-2-carboxylic acid], the IC50 was 0.6 to 10 nM.
`Cc1c(COc2cc(OCc3cccc(C#N)c3)c(CN[C@@H](CCS(C)(=O)=O)C(=O)O)cc2Cl)cccc1-c1ccc2c(c1)OCCO2` [Example 1200, (S)-2-((5-chloro-2-((3-cyanobenzyl)oxy)-4-((3-(2,3-dihydrobenzo[b][1,4]dioxin-6-yl)-2-methylbenzyl)oxy)benzyl)amino)-4-(methylsulfonyl)butanoic acid] gave an IC50 of 10 to 100 nM.
`CC[C@H](NCc1cc(Cl)c(OCc2cccc(-c3ccc4c(c3)OCCO4)c2C)cc1OCc1cccc(C#N)c1)C(=O)O` [Example 1201, (S)-2-((5-chloro-2-((3-cyanobenzyl)oxy)-4-((3-(2,3-dihydrobenzo[b][1,4]dioxin-6-yl)-2-methylbenzyl)oxy)benzyl)amino)butanoic acid] gave an IC50 of 0.6 to 10 nM.
`CSCC[C@H](NCc1cc(Cl)c(OCc2cccc(-c3ccc4c(c3)OCCO4)c2C)cc1OCc1cccc(C#N)c1)C(=O)O` [Example 1202, (S)-2-((5-chloro-2-((3-cyanobenzyl)oxy)-4-((3-(2,3-dihydrobenzo[b][1,4]dioxin-6-yl)-2-methylbenzyl)oxy)benzyl)amino)-4-(methylthio)butanoic acid] showed an IC50 of 10 to 100 nM.
`Cc1c(COc2cc(OCc3cccc(C#N)c3)c(CN(C)[C@@H](CC(=O)O)C(=O)O)cc2Cl)cccc1-c1ccc2c(c1)OCCO2` [Example 1203, (S)-2-((5-chloro-2-((3-cyanobenzyl)oxy)-4-((3-(2,3-dihydrobenzo[b][1,4]dioxin-6-yl)-2-methylbenzyl)oxy)benzyl)(methyl)amino)succinic acid] gave an IC50 of 0.6 to 10 nM.
`Cc1c(COc2cc(OCc3cccc(C#N)c3)c(CN3CC[C@@H](O)[C@H]3C(=O)O)cc2Cl)cccc1-c1ccc2c(c1)OCCO2` [Example 1204, (2S,3R)-1-(5-chloro-2-((3-cyanobenzyl)oxy)-4-((3-(2,3-dihydrobenzo[b][1,4]dioxin-6-yl)-2-methylbenzyl)oxy)benzyl)-3-hydroxypyrrolidine-2-carboxylic acid] gave an IC50 of 0.6 to 10 nM.
